Reference: paper PMC2364086, “Metabolism and growth inhibition of four retinoids in head and neck squamous normal and malignant cells” (British Journal of Cancer, 2001)

Experiments:
[1] = tested on: UM-SCC-14C; assay: Retinoid metabolism / turnover rate, HPLC; parameters: Metabolites Medium: dose or concentration left out as unconfirmed; settings: for Metabolites Medium: UM-SCC-14C medium; for Metabolism (turnover rate) Mean: 24 h
Description: (§1) Retinoic acid is an active metabolite of retinol (ROL, vitamin A) that plays an important role in growth and differentiation of a variety of cell types (Gudas et al, 1994). […] This is a whitish and reddish plaque in the epithe- lial lining in the oral cavity that have a relatively high risk to become malignant. […] One impor- tant route of ATRA metabolism consists of hydroxylation at posi- tion 4 of the cyclohexenyl ring to form 4-hydroxy-RA, which is readily oxidized to 4-oxo-RA. Other metabolic pathways of ATRA include isomerization, decarboxylation and glucuronidation processes (Rockley et al, 1980; Roberts et al, 1980; Sass et al, 1994). In vitro, 4-hydroxylation of ATRA is mediated by a cytochrome P450 (CYP)-dependent mono-oxogenase system that requires NAPDH and oxygen (Roberts et al, 1980). The present study was undertaken to investigate to what extent a panel of retinoids, including 13cRA, is able to inhibit growth of HNSCC cells and cultures of normal oral keratinocytes (OKC). […] After binding of retinoids to retinoic acid receptors (RARs and RXRs) dimers are formed that are able to regulate the expression of genes involved in growth and differentiation. We compared the metabolism and level of growth inhibition of 13cRA with that of ATRA, 9cRA and retinol in four HNSCC cell lines and normal oral keratinocyte cultures (OKC).

[2] = tested on: UM-SCC-22A; assay: Retinoid metabolism / turnover rate, HPLC; parameters: Metabolites Medium: dose or concentration left out as unconfirmed; settings: for Metabolites Medium: UM-SCC-22A medium; for Metabolism (turnover rate) Mean: 24 h
Description: as §1

[3] = tested on: UM-SCC-35R; assay: Retinoid metabolism / turnover rate, HPLC; parameters: Metabolites Medium: dose or concentration left out as unconfirmed; settings: for Metabolism (turnover rate) Mean: 24 h
Description: as §1

[4] = tested on: normal oral keratinocyte cultures (OKC); assay: Retinoid metabolism / turnover rate, HPLC; parameters: Metabolites Medium: dose or concentration left out as unconfirmed
Description: as §1

[5] = tested on: UM-SCC-35; assay: Retinoid metabolism / turnover rate, HPLC; settings: for Metabolites Pellet: UM-SCC-35 cell pellet
Description: as §1

[6] = tested on: oral leukoplakia; settings: ref Koch, 1978; cited from earlier work
[7] = tested on: CYP26; parameters: method as in Sonneveld et al, 1998; settings: ref Sonneveld et al, 1998; cited from earlier work
[8] = OKC, exposed, decrease in medium and cells between 4 and 24 h
[9] = 72 h exposure, 1 mM retinoid, HPLC

SMILES	Metabolites Medium ([1]; 72 h exposure, HPLC)	Metabolites Medium ([2]; 72 h exposure, HPLC)	Metabolism (turnover rate) Mean [4, 8]	Metabolites Pellet [5, 9]	Isomerization to other RA isomers ([1]; human, 1 µM)	Metabolism (turnover rate) Mean ([1]; human, 1 µM)	Isomerization to other RA isomers ([2]; human, 1 µM)	Metabolism (turnover rate) Mean ([2]; human, 1 µM)	Metabolism (turnover rate) Mean ([3]; human, 1 µM)	Isomerization to other RA isomers ([4]; human, 1 µM)	Metabolism (turnover rate) Mean ([4]; human, 24 h, 1 µM)	Metabolism (turnover rate) Mean ([5]; human, 24 h, 1 µM)	Metabolism by CYP26 [7]	other results
CC1=C(/C=C/C(C)=C/C=C/C(C)=C/CO)C(C)(C)CCC1 [ROL, retinol]	d1	d1	98.7 pmol per mg protein per hour	c1	–	–	–	–	–	–	–	–	–	Formation of ATRA after exposure ([1]; UM-SCC-14C): relatively high formation of ATRA; Metabolites Pellet ([1]; UM-SCC-14C cell pellet, 72 h exposure, HPLC): d1; Metabolites Pellet ([2]; UM-SCC-22A cell pellet, 72 h exposure, HPLC): d1; Formation of other retinoids after exposure ([3]; UM-SCC-35R): no or very small amounts of other retinoids; Metabolites Pellet ([4]; OKC cell pellet, 72 h exposure, HPLC): d1; Metabolites Medium ([4]; OKC medium, 72 h exposure, HPLC): d1; Formation of other retinoids after exposure ([5]; UM-SCC-35): no or very small amounts of other retinoids
CC1=C(/C=C/C(C)=C/C=C/C(C)=C/C(=O)O)C(C)(C)CCC1 [ATRA, all-trans-retinoic acid]	–	–	–	–	up to 10%	13.3 pmol per mg protein per hour	up to 10%	104.8 pmol per mg protein per hour	52.7 pmol per mg protein per hour	up to 10%	14.8 pmol per mg protein per hour	1,016.0 pmol per mg protein per hour	highly substrate (ATRA) specific	Major metabolite ([5]; human, 24 h, 1 µM): 4-OH-RA; Proportion of leukoplakia patients in whom active [6]: 59%
CC1=C(/C=C/C(C)=C\C=C\C(C)=C\C(=O)O)C(C)(C)CCC1 [9cRA, 9-cis-RA]	a,b	a,b	12.0 pmol per mg protein per hour	b (between 10 and 15 min)	–	–	–	–	–	–	–	–	can not metabolize	Isomerization to other RA isomers ([1]; UM-SCC-14C, ATRA to 13cRA, 13cRA to ATRA, 9cRA to ATRA and 13cRA): up to 5%; Isomerization to other RA isomers ([2]; UM-SCC-22A, ATRA to 13cRA, 13cRA to ATRA, 9cRA to ATRA and 13cRA): up to 5%; Metabolites Pellet ([3]; UM-SCC-35R cell pellet, 72 h exposure, HPLC): b (between 10 and 15 min); Metabolites Medium ([3]; UM-SCC-35R medium, 72 h exposure, HPLC): a,b; Isomerization to other RA isomers ([4]; OKC, ATRA to 13cRA, 13cRA to ATRA, 9cRA to ATRA and 13cRA): up to 5%; Metabolites Medium ([5]; UM-SCC-35 medium, 72 h exposure, 1 mM retinoid, HPLC): a,b,c
CC1=C(/C=C/C(C)=C/C=C/C(C)=C\C(=O)O)C(C)(C)CCC1 [13cRA, 13-cis-retinoic acid]	–	–	–	–	up to 10%	78.7 pmol per mg protein per hour	up to 10%	154.1 pmol per mg protein per hour	6.9 pmol per mg protein per hour	up to 10%	38.8 pmol per mg protein per hour	949.5 pmol per mg protein per hour	can not metabolize	Metabolites Pellet ([1]; human, 72 h, 1 µM): d2; Metabolites Pellet ([2]; human, 72 h, 1 µM): d2; Metabolites Pellet ([3]; human, 72 h, 1 µM): b,d2; Metabolites Pellet ([4]; human, 72 h, 1 µM): d2
